From patent US10919896B2, “Preparation and uses of pyrimidinone derivatives” (Cancer Research Technology Limited, priority 2016, dated 2021)

What was measured:
Cdc7/Dbf4 = Cdc7/Dbf4 (Homo sapiens, UniProt O00311); experiment: Cdc7 Biochemical Assay Method 3: Cdc7/Dbf4 Enzyme TR-FRET Assay measuring pS40MCM2; details: 1 μM ATP, read-out: Biochemical Method 3 (pIC50) (converted)
Method in brief: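 TR-FRET read-out (terbium anti-rabbit donor, streptavidin-Alexa Fluor488 acceptor, anti-Mcm2 pS40 antibody) of peptide phosphorylation after 120 min at 25° C; reaction held 1 μM ATP, 100 nM biotin-tagged peptide substrate and 2.5 nM enzyme complex.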

[1] = test system: Cdc7 (pS40MCM2 levels in HCT116 cells); experiment: Cdc7 Cell Pharmacodynamics Assay Method 2A: pS40MCM2 levels in HCT116 cells, 6 hours; format: cell-based; details: Homo sapiens, HCT-116, read-out: Biomarker Method 2A (pEC50) (converted)
Excerpt: (§1) This protocol describes a method to investigate the inhibition of Cdc7 activity by measuring pS40MCM2 levels in cells, after treatment with compounds.
(§2) • HCT116 cells (ATCC, #CCL-247) • McCoys 5A with L-glutamine (Cellgro, #10-050-CV) • 10% FCS (Cellgro, #35-010-CV) • D-PBS without CaCl2 and MgCl2 (Cellgro, #21-031-CV) • Trypsin/EDTA (Cellgro, #25-052-CL) • BSA (Calbiochem, 126593) • Cell Extraction Buffer (Invitrogen FNN0011) • Protease inhibitor cocktail (Sigma P-2714) • PMSF 0.3M stock in DMSO (Sigma P7626) • Antibody-rabbit pMCM2 Ser40 (Abcam, AB133243) • Antibody-goat MCM2 (Bethyl #A300-122A) • Antibody-goat Anti Rabbit IgG HRP (Thermo, 31462) • SuperSignal ELISA Pico Chemiluminescent Substrate (Perbio Science UK Ltd 37069) • 10×PBS (Growcells, MRGF-6236) • Triton X100 (Sigma, P-T8787) • DMSO (Fisher, D128-1) • 2-Propanol (J. T. Baker, 9095-03) Method • Seed 1×10^6 HCT116 cells into each of two 175 cm^2 flask containing 30 mL Cell Growth Media and incubate at 37° C., 5% CO2 for 3 days. • Harvest the cells from one T175 cm^2 flask and count. • Dilute with Cell Growth Media to a cell density of 2×10^5. Dispense 100 μL to each well (20,000 HCT116 cells/well) of TC treated 96-well plate(s). • Allow cells to settle overnight in incubator set at 37° C. and 5% CO2. • Cell treatment: Transfer 0.25 μL/well from the compound plate to the wells of the cell plate(s). This is a 1:400 dilution of compound in the assay. • Once all cells are treated place the cells back to the incubator and incubate for either 6 hours (Method 2A) or 18 hours (Method 2B). • Dilute the capture antibody (total MCM2#A300-122A) 1 in 250 in the required volume of PBS (5 mL per assay plate, plus 5 mL for dead volume) and add 50 μL to each well of a Hybond plate except wells A12 & B12. Seal the plate and incubate at room temperature for a minimum of 2 hours. • Defrost aliquot of Invitrogen Cell Extraction Buffer (FNN0011) on ice and supplement with appropriate volume of both Sigma protease inhibitor cocktail (P-2714) and PMSF (final conc 1 mM from a 1 M stock in DMSO). • After the 6 hour or 18 hour cell treatment time, tap out the media from the assay plates and place them in the −70° C. freezer for at least 5 minutes. • Flick out the remaining liquid in the previously prepared capture Ab plate(s) and add 200 μL 2% BSA per well. Incubate for 1 hour at room temperature. • Remove plates from freezer and add 20 μL of ice cold complete lysis buffer. Incubate cells for 30 minutes at 4° C. • Add 30 μL per well 2% BSA • At the end of the 1 hour incubation, wash the Capture/ELISA plate(s) with Wash Buffer on the BioTek plate washer. • Transfer 40 μL per well of the lysis plate(s) to the same wells in the Capture/ELISA plate. Incubate cells overnight at 4° C. • At the end of the overnight incubation, wash the ELISA plate(s) with Wash Buffer on BioTek plate washer. • Prepare Detection Antibody Buffer and dispense 50 μL to all wells of ELISA plate(s) except wells G1 & H1. Cover plate and incubate at room temperature for 2 hours with gentle shaking. • At the end of the 2 hour incubation, wash the ELISA plate(s) with Wash Buffer on the BioTek plate washer. • Prepare the Conjugated Antibody Buffer and dispense 50 μL to all wells of ELISA plate(s). • Cover the plate and incubate at room temperature for 1 hour with gentle shaking. • At the end of the 1 hour incubation, wash the ELISA plate(s) with Wash Buffer on the BioTek plate washer. • Prepare Substrate Buffer and dispense 50 μL to all wells of ELISA plate(s). • Incubate for a minimum of 10 minutes and read plates on the EnVision 2100 Multilabel Reader (Mirror: Luminescence (404) & Luminescence 700 (212); Measurement Height: 6.5 mm; Measurement Time: 0.2 s). Method 3

[2] = test system: Cdc7 (pS40MCM2 levels in HCT116 cells); experiment: Cdc7 Cell Pharmacodynamics Assay Method 2B: pS40MCM2 levels in HCT116 cells, 18 hours; format: cell-based; details: Homo sapiens, HCT-116, read-out: Biomarker Method 2B (pEC50) (converted)
Excerpt: as §1, §2

[3] = test system: Cdc7 (pS53MCM2 levels in SW48 cells); experiment: Cdc7 Cell Pharmacodynamics Assay Method 3: pS53MCM2 levels in SW48 cells, 6 hours; format: cell-based; details: Homo sapiens, SW48, 6 h, read-out: Biomarker Method 3 (pEC50) (converted)
Excerpt: This protocol describes a method to investigate the inhibition of Cdc7 activity by measuring pS53MCM2 levels in cells, after treatment with compounds.
• SW48 cells • RPMI 1640 (Sigma, R5886) • 10% FCS (Sera Laboratories International Ltd, EU000F Batch:108005) • 100× L-Glutamine (Invitrogen, 25030-024) • D-Glucose Solution (10%) (Sigma, G8644) • HEPES Buffer Solution (Sigma, 83264) • Sodium Pyruvate (Sigma, S8636) • PBS (Fisger, BP399-4) • Trypsin/EDTA (Invitrogen 25300-054) • 2% BSA in PBS • Cell Extraction Buffer (Invitrogen FNN0011) • Protease inhibitor cocktail (Sigma P-2714) • PMSF 0.3M stock in DMSO (Sigma P7626) • Antibody-rabbit pMCM2 Ser53 (Bethyl #A300-756A) • Antibody-goat MCM2 (Bethyl #A300-122A) • Antibody-goat Anti Rabbit IgG HRP (Perbio Science UK Ltd 31462) • SuperSignal ELISA Pico Chemiluminescent Substrate (Perbio Science UK Ltd 37070) Method • Plate 30,000 SW48 cells per well in standard TC treated 96 well plate in 100 μL complete RPMI 1640 medium. • Allow cells to settle overnight in incubator set at 37° C. and 5% CO2. • Cell treatment: prepare a 384 well plate containing 80 μl PBS/well. The PBS should be at room temperature—to be referred to as intermediate plate. Transfer 2 μL of compound from mother plate to intermediate (daughter plate) 1:40 dilution, then 5 μL intermediate to cell (daughter) plate. • Once all cells are treated place the cells back to the incubator and incubate for 6 hours. • Dilute the capture antibody (total MCM2#A300-122A) 1 in 250 in the required volume of PBS (5 mL per assay plate, plus 5 mL for dead volume) and add 50 μL to each well of a Hybond plate. Seal the plate and incubate at room temperature for a minimum of 2 hours. • Defrost aliquot of Invitrogen Cell Extraction Buffer (FNN0011) on ice and supplement with appropriate volume of both Sigma protease inhibitor cocktail (P-2714) and PMSF (final conc 1 mM from a 1 M stock in DMSO). • After the 6 hour cell treatment time, tap out the media from the assay plates and place them in the −80° C. freezer for at least 5 minutes. • Remove plates from freezer and add 20 μL of ice cold complete lysis buffer, with the multidrop. Incubate cells for 30 minutes at 4° C. • Add 80 μL per well 2% BSA. • Flick out the remaining liquid from the capture plate and transfer 80 μL from the lysis plate to the same wells in the capture/ELISA plate, using the Biomek. Cover with plate seal and incubate plates overnight at 4° C. • Wash plates with PBS, remove any residual remaining liquid and add 50 μL per well of pMCM2 Ser53 antibody (#A300-756A) diluted 1 in 100 in 2% BSA. Cover plate and incubate at room temperature for 2 hours with gentle shaking. • Wash plates with PBS, remove any residual remaining liquid and Incubate with 50 μL goat anti rabbit antibody (1 in 800 dilution in 2% BSA), for 1 hour at room temperature. • Wash plates with PBS, remove any residual remaining liquid and add 50 μL mixed SuperSignal Pico substrate. • Incubate each plate for 5 minutes at room temperature shielding the plates from direct light (with a cover plate). Read plates with the luminescent detection.

Sequence of Cdc7/Dbf4 (O00311 whole entry): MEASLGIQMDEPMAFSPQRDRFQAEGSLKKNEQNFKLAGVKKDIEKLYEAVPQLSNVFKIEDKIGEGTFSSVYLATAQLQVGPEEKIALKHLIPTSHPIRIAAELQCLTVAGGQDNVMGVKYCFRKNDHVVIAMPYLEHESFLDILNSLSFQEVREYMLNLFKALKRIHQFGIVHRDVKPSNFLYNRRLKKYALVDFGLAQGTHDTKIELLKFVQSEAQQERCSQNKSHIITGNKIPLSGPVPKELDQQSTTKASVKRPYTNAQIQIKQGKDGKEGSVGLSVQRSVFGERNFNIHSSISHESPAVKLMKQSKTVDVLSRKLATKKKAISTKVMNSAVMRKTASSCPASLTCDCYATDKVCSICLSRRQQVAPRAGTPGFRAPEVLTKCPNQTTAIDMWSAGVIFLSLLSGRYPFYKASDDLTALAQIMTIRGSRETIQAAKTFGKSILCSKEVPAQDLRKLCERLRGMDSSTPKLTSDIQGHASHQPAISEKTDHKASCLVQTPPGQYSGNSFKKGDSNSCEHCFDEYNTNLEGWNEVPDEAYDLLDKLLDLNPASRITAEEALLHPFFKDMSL
Sequence of Cdc7/Dbf4 (Q9UBU7 whole entry partner): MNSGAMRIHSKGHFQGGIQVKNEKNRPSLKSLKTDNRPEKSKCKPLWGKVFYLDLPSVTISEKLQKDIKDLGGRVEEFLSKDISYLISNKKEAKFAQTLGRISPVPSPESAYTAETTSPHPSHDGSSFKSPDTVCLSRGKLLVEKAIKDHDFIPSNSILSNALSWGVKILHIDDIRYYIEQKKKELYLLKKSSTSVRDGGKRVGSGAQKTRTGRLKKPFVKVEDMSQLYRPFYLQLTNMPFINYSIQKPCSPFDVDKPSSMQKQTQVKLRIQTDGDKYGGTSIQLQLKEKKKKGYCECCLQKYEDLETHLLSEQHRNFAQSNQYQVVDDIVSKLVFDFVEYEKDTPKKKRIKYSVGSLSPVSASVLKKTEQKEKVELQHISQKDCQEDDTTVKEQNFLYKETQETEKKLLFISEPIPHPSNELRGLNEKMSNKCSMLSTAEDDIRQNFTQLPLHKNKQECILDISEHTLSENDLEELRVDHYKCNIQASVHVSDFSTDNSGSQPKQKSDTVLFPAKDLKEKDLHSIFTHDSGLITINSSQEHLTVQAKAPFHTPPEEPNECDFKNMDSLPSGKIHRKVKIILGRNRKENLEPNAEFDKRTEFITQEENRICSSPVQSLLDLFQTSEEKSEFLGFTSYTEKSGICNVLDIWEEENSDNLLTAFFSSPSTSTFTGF

| SMILES | IC50 (Cdc7/Dbf4) [nM] | EC50 [1] [nM] | EC50 [2] [nM] | EC50 [3] [nM] |
| --- | --- | --- | --- | --- |
| O=c1[nH]c(-c2ccnc(F)c2)nc(N2C3CCCC2COC3)c1Cl [Compound 334] | 0.724 | 135 | 61.7 | – |
| O=C1CCCN(c2nc(-c3ccnc(F)c3)[nH]c(=O)c2Cl)CC1 [Compound 203] | 2.95 | 363 | – | – |
| CC(=O)NC1CCN(c2nc(-c3ccnc(F)c3)[nH]c(=O)c2Cl)CC1 [Compound 232] | 1.02 | 2000 | 977 | – |
| O=c1[nH]c(-c2ccnc(F)c2)nc(N2C3CCC2COC3)c1Cl [Compound 192] | 0.813 | 89.1 | 49 | – |
| N[C@@H]1CN(c2nc(-c3ccnc(F)c3)[nH]c(=O)c2Cl)CC[C@H]1O [Compound 235] | 1.2 | 1120 | – | – |
| CN[C@H]1CCCN(c2nc(-c3ccnc(F)c3)[nH]c(=O)c2Cl)C1 [Compound 197] | 2.4 | 316 | – | – |
| O=C1CCN(c2nc(-c3ccnc(F)c3)[nH]c(=O)c2Cl)CC1 [Compound 234] | 1.38 | 38.9 | – | – |
| O=c1[nH]c(-c2ccnc(F)c2)nc(N2CCC3CCNCC32)c1Cl (stereo not shown) [Compound 221] | 2.88 | 1620 | 562 | – |
| C[C@H]1COCCN1c1nc(-c2ccnc(F)c2)[nH]c(=O)c1Cl [Compound 333] | 1.23 | 347 | 87.1 | – |
| C[C@H]1CNCCN1c1nc(-c2ccnc(F)c2)[nH]c(=O)c1Cl [Compound 326] | 0.49 | 40.7 | – | – |
| N[C@@H]1CCCCN(c2nc(-c3ccnc(F)c3)[nH]c(=O)c2Cl)C1 [Compound 183, 4-[(3R)-3-aminoazepan-1-yl]-5-chloro-2-(2-fluoro-4-pyridyl)-1H-pyrimidin-6-one 2,2,2-trifluoroacetic acid] | 0.513 | 148 | – | – |
| C[C@@H]1COCCN1c1nc(-c2ccnc(F)c2)[nH]c(=O)c1Cl [Compound 328] | 0.575 | 3.89 | – | – |
| NC1CN(c2nc(-c3ccnc(F)c3)[nH]c(=O)c2Cl)CCC1F (mixture of isomers) [Compound 252] | 0.617 | 38 | – | – |
| N[C@H]1CCCCN(c2nc(-c3ccnc(F)c3)[nH]c(=O)c2Cl)C1 [Compound 188] | 1.74 | 170 | – | – |
| O=c1[nH]c(-c2ccnc(F)c2)nc(N2CCNCC(O)C2)c1Cl (stereo not shown) [Compound 190] | 0.708 | 741 | – | – |
| O=c1[nH]c(-c2ccnc(F)c2)nc(N2CCC3NCCCC32)c1Cl (stereo not shown) [Compound 223] | 2.88 | 56.2 | 47.9 | – |
| O=c1[nH]c(-c2ccnc(F)c2)nc(N2CCC3NCCC32)c1Cl (stereo not shown) [Compound 243] | 2 | 288 | – | – |
| CN[C@@H]1CCCN(c2nc(-c3ccnc(F)c3)[nH]c(=O)c2Cl)C1 [Compound 196] | 1.91 | 72.4 | – | – |
| C[C@H]1CN[C@@H](C(F)(F)F)CN1c1nc(-c2ccnc(F)c2)[nH]c(=O)c1Cl (racemic) [Compound 378, Cis-5-chloro-2-(2-fluoro-4-pyridyl)-4-[2-methyl-5-(trifluoromethyl)piperazin-1-yl]-1H-pyrimidin-6-one] | 5.89 | – | 437 | 2090 |
| CC[C@@H]1CN(c2nc(-c3ccnc(F)c3)[nH]c(=O)c2Cl)CCO1 [Compound 205] | 1.41 | 275 | – | – |
| O=C1CNCCN(c2nc(-c3ccnc(F)c3)[nH]c(=O)c2Cl)C1 [Compound 412, 1-[5-chloro-2-(2-fluoro-4-pyridyl)-6-oxo-1H-pyrimidin-4-yl]-1,4-diazepan-6-one 2,2,2-trifluoroacetic acid] | 0.646 | 339 | – | – |
